One assay deals with Jurkat. The assay can be described thus: Antitumor activity against Jurkat cells. The conditions noted are these: Homo sapiens. It is filed as functional, cell-based.
In a further assay the test system is HeLa. The assay can be described thus: Antitumor activity against HeLa cells. It is filed as functional, cell-based. To be noted: Homo sapiens.

Take `COc1ccc(C(=O)O[C@H]2[C@H](O[C@H]3[C@H](OC(C)=O)[C@@H](O[C@H]4C[C@H]5C[C@@H](O)CC[C@]5(C)[C@@]4(O)[C@@H](C)C(=O)OCC(C)C)OC[C@H]3O)OC[C@@H](O)[C@@H]2O)cc1`: the half-inhibitory concentration (IC50) in the assay with Jurkat amounted to 21.1 µM; in the assay on HeLa, 0.8 µM.
`COc1ccc(C(=O)O[C@H]2[C@H](O[C@H]3[C@H](OC(C)=O)[C@@H](O[C@H]4C[C@H]5C[C@@H](O)CC[C@]5(C)[C@@]4(O)[C@H](C)C(=O)OCC(C)C)OC[C@H]3O)OC[C@@H](O)[C@@H]2O)cc1`: the 50% inhibitory concentration (IC50) in the assay on Jurkat was 14.5 µM; in the assay on HeLa, 2.6 µM.
`COc1ccc(C(=O)O[C@H]2[C@H](O[C@H]3[C@H](OC(C)=O)[C@@H](O[C@H]4C[C@H]5[C@@H]6CC=C7C[C@@H](O)CC[C@]7(C)[C@H]6CC[C@]5(C)[C@@]4(O)[C@H](C)C(=O)OCC(C)C)OC[C@H]3O)OC[C@@H](O)[C@@H]2O)cc1`: the results for the IC50 with Jurkat and in the assay on HeLa were 0.0013 µM and 0.24 µM, respectively.
For `COc1ccc(C(=O)O[C@H]2[C@H](O[C@H]3[C@H](OC(C)=O)[C@@H](O[C@H]4C[C@H]5CCCC[C@]5(C)[C@@]4(O)[C@H](C)C(=O)OCC(C)C)OC[C@H]3O)OC[C@@H](O)[C@@H]2O)cc1`, the 50% inhibitory concentration (IC50) in the assay on Jurkat turned out to be 8.9 µM; in the assay with HeLa, 14.9 µM.

These data come from ChEMBL document CHEMBL1137476, “Synthesis of the A,B-ring-truncated OSW saponin analogs and their antitumor activities” (Bioorg Med Chem Lett, 2007).
